Assay results from patent US4202968A, “New tunicamine derivatives and their preparation” (Meiji Seika Kaisha, Ltd., priority 1977, dated 1980).

Assays:
[1] = test system: Newcastle disease virus (NDV), influenza virus and tobacco-mosaic virus; settings: cited from earlier work
[2] = test system: genera Bacillus, Candida, Microbacterium; settings: cited from earlier work
Eimeria tenella = assay: Inhibitory activity against coccidiosis in chicks orally inoculated with Eimeria tenella oocysts; assay type: in vivo, chicks (domestic fowls) infected with Eimeria tenella; design: key to Presence of hemaferia: -: Not existing; ±: Something like hemaferia is likely to exist; +: A little hemaferia exists; ++: Distinct hemaferiae exist in places; +++: Distinct hemaferiae exist almost over the whole; ++++: The whole are hemaferiae
Experimental: Inhibitory activity of tunicamine derivative C against coccidiosis was tested in the following manner. Primary chicks newly-hatched out were raised with a standard assorted feed for chicks containing no tunicamine derivative C for the first 7 days and on and after the 8th day with the same feed as above but containing a 100 ppm or 200 ppm concentration of tunicamine derivative C. On the 8th day from the hatch the body weight of the chicks was taken and they were divided into test groups of five chicks per group so as to balance the weight distribution for respective groups. On the 9th day, each chick was orally inoculated with 5.0×10^4 matured oocysts of Eimeria tenella. Assessment was made by observation and determination of the presence of […] on the 4, 5, 6, 7 and 8 from day inoculation; percent of survivals on the 8th day and the extend of symptoms on the 8th day from the inoculation were then evaluated.

[3] = 100 ppm in feed, 8th day from inoculation
[4] = 200 ppm in feed, 8th day from inoculation

Compound | antiviral activity [1] | antibacterial activity [2] | Relative increase in body weight (Eimeria tenella; 100 ppm in feed) | Presence of hemaferia (Eimeria tenella; 100 ppm in feed, 4th day from inoculation) | Presence of hemaferia (Eimeria tenella; 100 ppm in feed, 5th day from inoculation) | Presence of hemaferia (Eimeria tenella; 100 ppm in feed, 6th day from inoculation) | Presence of hemaferia (Eimeria tenella; 100 ppm in feed, 7th day from inoculation) | Percent of survivals (Eimeria tenella; [3]) | Presence of hemaferia (Eimeria tenella; [3]) | Relative increase in body weight (Eimeria tenella; 200 ppm in feed) | Presence of hemaferia (Eimeria tenella; 200 ppm in feed, 4th day from inoculation) | Presence of hemaferia (Eimeria tenella; 200 ppm in feed, 5th day from inoculation) | Presence of hemaferia (Eimeria tenella; 200 ppm in feed, 6th day from inoculation) | Presence of hemaferia (Eimeria tenella; 200 ppm in feed, 7th day from inoculation) | Percent of survivals (Eimeria tenella; [4]) | Presence of hemaferia (Eimeria tenella; [4])
tunicamycin | high | high |  |  |  |  |  |  |  |  |  |  |  |  |  | 
NC1C(O)OC(CC(O)C2OC(n3ccc(=O)[nH]c3=O)C(O)C2O)C(O)C1O (stereo not shown) [tunicamine derivative C] |  |  | 96% | - | - | ± | ± | 100% | + | 102% | - | - | - | - | 100% | -
